According to patent US10550111B2, “Pyrimidine urea compound containing isoxazolines and use thereof” (SHENYANG SINOCHEM AGROCHEMICALS R&D CO., LTD, priority 2014, dated 2020):

Legend:
Format in all cases: in vivo
[1] = system: Echinochloa crus-galli (L.) Beauv.; assay: Bioassay of herbicidal activity in greenhouse (further screening)
Outline: (§1)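 Plants were raised from seed under greenhouse conditions and treated with emulsifiable-concentrate compounds by track sprayer, either 24 hours after sowing or post-emergence at the 2- to 3-leaf (grass) or 2- to 4-leaf (broad-leaf) stage. Damage was assessed visually as percent growth inhibition.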

Zinnia elegans Jacq. = assay: as above
Outline: as §1

[2] = system: Abutilon theophrasti Medic.; assay: as above
Outline: as §1

[3] = system: Setaria glauca (L.) Beauv.; assay: as above
Outline: as §1

maize = assay: Crop safety study in greenhouse; conditions: 7.5-37.5 g a.i./hm^2; pre-emergence and post-emergence application
Source text: (§2) Seeds of soybean, cotton, maize, wheat and rice were sown in nutrition soil in paper pot (9 cm diameter), covered with soil in 1 cm and grown in the greenhouse under good growth conditions (temperature, atmospheric humidity, water supply). The compounds of the present invention as emulsifiable concentrate, were applied in pre-emergence and post-emergence treatment by track sprayer (Engineer Research Ltd., pressure 1.95 kg/cm^2, volume 500 L/hm^2, track speed 1.48 km/h). Pre-emergence treatment was conducted after seeding 24 hours and post-emergence treatment was done when the respective weeds reached predetermined leaf stage (soybean and cotton at 2- to 4-leaf stage and maize, wheat and rice at 3-leaf stage), the state of growth of the respective crops were visually observed to determine the safety in accordance with the following evaluation standard.
(§3) Safety rating scale (%): 0 means no damage to crops; 100 means to kill crops completely.

wheat = assay: Crop safety study in greenhouse; conditions: 7.5-37.5 g a.i./hm^2; pre-emergence and post-emergence application
Source text: as §2, §3

rice = assay: Crop safety study in greenhouse; conditions: 7.5-37.5 g a.i./hm^2; pre-emergence and post-emergence application
Source text: as §2, §3

[4] = system: broad-leaf weeds and grass weeds; assay: General screening of herbicidal activity in greenhouse; conditions: 1000 g a.i./hm^2;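 note: 0 means no visible effect and 100 means all weeds dead or not emerged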
Outline: as §1

Cn1c(C(F)(F)F)cc(=O)n(-c2cc(C3=NOC(C)(COC(=O)COc4ccc(Cl)cc4Cl)C3)c(Cl)cc2F)c1=O (centres unmarked) [Compound 83]
Growth inhibition rate, Post-emergence treatment, Echinochloa crus-galli (L.) Beauv. ([1]; dose 7.5 g a.i./hm^2): 25% | Growth inhibition rate, Post-emergence treatment, Echinochloa crus-galli (L.) Beauv. ([1]; dose 15 g a.i./hm^2): 25% | Growth inhibition rate, Post-emergence treatment, Echinochloa crus-galli (L.) Beauv. ([1]; dose 37.5 g a.i./hm^2): 30% | Growth inhibition rate, Post-emergence treatment, Echinochloa crus-galli (L.) Beauv. ([1]; dose 150 g a.i./hm^2): 45% | Growth inhibition rate, Post-emergence treatment, Echinochloa crus-galli (L.) Beauv. ([1]; dose 600 g a.i./hm^2): 90% | Growth inhibition rate, Pre-emergence treatment, Echinochloa crus-galli (L.) Beauv. ([1]; dose 7.5 g a.i./hm^2): 10% | Growth inhibition rate, Pre-emergence treatment, Echinochloa crus-galli (L.) Beauv. ([1]; dose 15 g a.i./hm^2): 10% | Growth inhibition rate, Pre-emergence treatment, Echinochloa crus-galli (L.) Beauv. ([1]; dose 37.5 g a.i./hm^2): 25% | Growth inhibition rate, Pre-emergence treatment, Echinochloa crus-galli (L.) Beauv. ([1]; dose 150 g a.i./hm^2): 90% | Growth inhibition rate, Pre-emergence treatment, Echinochloa crus-galli (L.) Beauv. ([1]; dose 600 g a.i./hm^2): 100% | Growth inhibition rate, Post-emergence treatment, Zinnia elegans Jacq. (Zinnia elegans Jacq.; dose 7.5 g a.i./hm^2): 65% | Growth inhibition rate, Post-emergence treatment, Zinnia elegans Jacq. (Zinnia elegans Jacq.; dose 15 g a.i./hm^2): 90% | Growth inhibition rate, Post-emergence treatment, Zinnia elegans Jacq. (Zinnia elegans Jacq.; dose 37.5 g a.i./hm^2): 98% | Growth inhibition rate, Post-emergence treatment, Zinnia elegans Jacq. (Zinnia elegans Jacq.; dose 150 g a.i./hm^2): 100% | Growth inhibition rate, Post-emergence treatment, Zinnia elegans Jacq. (Zinnia elegans Jacq.; dose 600 g a.i./hm^2): 100% | Growth inhibition rate, Pre-emergence treatment, Zinnia elegans Jacq. (Zinnia elegans Jacq.; dose 7.5 g a.i./hm^2): 0% | Growth inhibition rate, Pre-emergence treatment, Zinnia elegans Jacq. (Zinnia elegans Jacq.; dose 15 g a.i./hm^2): 10% | Growth inhibition rate, Pre-emergence treatment, Zinnia elegans Jacq. (Zinnia elegans Jacq.; dose 37.5 g a.i./hm^2): 50% | Growth inhibition rate, Pre-emergence treatment, Zinnia elegans Jacq. (Zinnia elegans Jacq.; dose 150 g a.i./hm^2): 100% | Growth inhibition rate, Pre-emergence treatment, Zinnia elegans Jacq. (Zinnia elegans Jacq.; dose 600 g a.i./hm^2): 100% | Growth inhibition rate, Post-emergence treatment, Abutilon theophrasti Medic. ([2]; dose 7.5 g a.i./hm^2): 65% | Growth inhibition rate, Post-emergence treatment, Abutilon theophrasti Medic. ([2]; dose 15 g a.i./hm^2): 98% | Growth inhibition rate, Post-emergence treatment, Abutilon theophrasti Medic. ([2]; dose 37.5 g a.i./hm^2): 100% | Growth inhibition rate, Post-emergence treatment, Abutilon theophrasti Medic. ([2]; dose 150 g a.i./hm^2): 100% | Growth inhibition rate, Post-emergence treatment, Abutilon theophrasti Medic. ([2]; dose 600 g a.i./hm^2): 100% | Growth inhibition rate, Pre-emergence treatment, Abutilon theophrasti Medic. ([2]; dose 7.5 g a.i./hm^2): 0% | Growth inhibition rate, Pre-emergence treatment, Abutilon theophrasti Medic. ([2]; dose 15 g a.i./hm^2): 30% | Growth inhibition rate, Pre-emergence treatment, Abutilon theophrasti Medic. ([2]; dose 37.5 g a.i./hm^2): 50% | Growth inhibition rate, Pre-emergence treatment, Abutilon theophrasti Medic. ([2]; dose 150 g a.i./hm^2): 100% | Growth inhibition rate, Pre-emergence treatment, Abutilon theophrasti Medic. ([2]; dose 600 g a.i./hm^2): 100% | Growth inhibition rate, Post-emergence treatment, Setaria glauca (L.) Beauv. ([3]; dose 7.5 g a.i./hm^2): 30% | Growth inhibition rate, Post-emergence treatment, Setaria glauca (L.) Beauv. ([3]; dose 15 g a.i./hm^2): 45% | Growth inhibition rate, Post-emergence treatment, Setaria glauca (L.) Beauv. ([3]; dose 37.5 g a.i./hm^2): 50% | Growth inhibition rate, Post-emergence treatment, Setaria glauca (L.) Beauv. ([3]; dose 150 g a.i./hm^2): 70% | Growth inhibition rate, Post-emergence treatment, Setaria glauca (L.) Beauv. ([3]; dose 600 g a.i./hm^2): 85% | Growth inhibition rate, Pre-emergence treatment, Setaria glauca (L.) Beauv. ([3]; dose 7.5 g a.i./hm^2): 10% | Growth inhibition rate, Pre-emergence treatment, Setaria glauca (L.) Beauv. ([3]; dose 15 g a.i./hm^2): 15% | Growth inhibition rate, Pre-emergence treatment, Setaria glauca (L.) Beauv. ([3]; dose 37.5 g a.i./hm^2): 35% | Growth inhibition rate, Pre-emergence treatment, Setaria glauca (L.) Beauv. ([3]; dose 150 g a.i./hm^2): 80% | Growth inhibition rate, Pre-emergence treatment, Setaria glauca (L.) Beauv. ([3]; dose 600 g a.i./hm^2): 100% | Crop safety, maize (maize): good safety | Crop safety, wheat (wheat): good safety | Crop safety, rice (rice): good safety | pre-emergence and post-emergence herbicidal activity against broad-leaf weeds and grass weeds [4]: good
